Source: patent US20100222365A1, “SUBSTITUTED TRIAZOLE DERIVIATIVES AS OXYTOCIN ANTAGONISTS” (Pfizer Inc, priority 2005, published 2010)

Target: T1, Oxytocin receptor (CHO-OTR/NFAT-β-Lactamase cells) (Homo sapiens, UniProt P30559)
T1 construct: expressed in transfected cells; host or cells: CHO-OTR cell line, further transfected with the NFAT-β-lactamase reporter construct
T1 sequence (P30559 1-389): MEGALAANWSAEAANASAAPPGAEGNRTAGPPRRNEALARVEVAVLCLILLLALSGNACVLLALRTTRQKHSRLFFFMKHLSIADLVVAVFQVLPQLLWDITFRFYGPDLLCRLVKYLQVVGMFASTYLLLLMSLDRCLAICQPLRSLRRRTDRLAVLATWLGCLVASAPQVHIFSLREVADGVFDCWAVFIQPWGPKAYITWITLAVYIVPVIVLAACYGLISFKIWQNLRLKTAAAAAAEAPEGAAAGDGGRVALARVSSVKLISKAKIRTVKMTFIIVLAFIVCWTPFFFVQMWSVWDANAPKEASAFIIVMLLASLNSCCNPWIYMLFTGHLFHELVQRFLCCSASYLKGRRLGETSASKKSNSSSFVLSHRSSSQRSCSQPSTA
Assay: Oxytocin Receptor Beta-lactamase Assay
Assay type: cell-based
Details: oxytocin stimulation 4 hours, read-out: Oxytocin antagonist activity, expressed as a Ki value
Description: A suitable assay for determining the Oxytocin antagonist activity of a compound is detailed herein below.
Oxytocin Receptor Beta-lactamase Assay:
Cell Culture: Cells used are CHO-OTR/NFAT-β-Lactamase. The NFAT-β-lactamase expression construct was transfected into the CHO-OTR cell line and clonal populations were isolated via fluorescence activated cell sorting (FAGS). An appropriate clone was selected to develop the assay.
Culturing cells—CHO-OTR-NFAT-βLactamase cells were grown in growth medium. Cells were harvested when they reached 80-90% confluence removing the medium and washing with pre-warmed PBS. […]
Cells grown at 80-90% confluence were harvested and counted. […]
Preparation of 1 ml of 6× Loading Buffer with Enhanced Loading Protocol (this requires scale-up according to number of plates to be screened) • 12 μl of solution A (1 mM CCF4-AM in Dry DMSO) was added to […] of solution B (100 mg/ml Pluronic-F127 in DMSO+0.1% Acetic Acid) and vortexed. • The resulting solution was added to 925 μl of solution C (24% w/w PEG400, 18% TR40 v/v in water). • 75 μl of solution D was added (200 mM probenecid in 200 mM NaOH). • 10 μl of 6× Loading Buffer was added to all wells and incubated for 1.5 hrs-2 hrs at room temperature in the dark. • The plates were read using an UL Analyst, Excitation 405 nm, Emission 450 nm and 530 nm, gain optimal, lagtime 0.40 μs integration, 4 flashes, bottom reading.

COc1ccc(-n2c(C)nnc2-c2cnc(Oc3cccc(C)c3C)cn2)cn1 [Example 6]
Ki: 5.5 nM
